Test results published in US20230266302A1, “SYNTHESIS AND USE OF N-BENZYL SULFONAMIDES” (THE UNIVERSITY OF TULSA, priority 2020, published 2023).

Tests used:
Experiment in all cases: ATP level assay (CellTiter-Glo), percent of control
Type in all cases: cell-based
[1] = test system: BxPC3 (pancreatic cancer); details: two hour incubation; for activity at 100 µM: Homo sapiens, BXPC-3, 2 h, compound alone, control DMSO, read-out: POC (percent of control) BxPC3
Source text: (§1) In the present method, the method of using the available assays has been modified to measure the short-term effect of compounds of interest on ATP levels in the cells. […] In the modified method, the control and test cells are initially treated with the metabolic inhibitor for a period of about thirty minutes to about four hours. Typically, the treatment of the cells with the metabolic inhibitor is for one hour prior to adding the compound to be screened for anti-cancer properties. However, simultaneous treatment with the metabolic inhibitor and the compound being screened should provide satisfactory results. […] ATP synthesis in cells occurs over multiple biochemical pathways. These pathways are very responsive to metabolic inhibitors and/or changes in available nutrients. By incorporating a metabolic inhibitor which is known to impact certain pathways, the disclosed method provides for measurement of a compound's direct effects on the remaining metabolic pathways available for ATP synthesis in the cell.
(§2) Following treatment of the control and test cells with the metabolic inhibitor, the method calls for addition of the compound to be screened for anti-cancer properties to the cells. Following addition of the compound of interest, the assay is allowed to continue for about one hour to about four hours or depending on the luminescing agent up to eighteen hours. However, approximately 60 minutes will be sufficient to determine the ATP inhibiting effect of the compound to be screened on the cells. Following completion of the selected time period, the ATP level within the cell is determined. ATP levels can be determined by luminescence according to standard measuring procedures, i.e. the luminescence level of the assay from the living cells treated with the two component composition is compared to the luminescence level of the assay from the living cells without the two component composition, i.e., the control experiment. Thus, the ATP levels are determined without killing the cells during the incubation of the cells in the presence of the compound of interest. As a result, the measured reduction in ATP level corresponds directly to the inhibition of the metabolic pathways uninhibited by the metabolic blocker.
(§3) A wide variety of ATP luminescing detection reagents are available commercially. So long as the reagent produces a luminescence in the presence of ATP, the reagent will be suitable for use in the present method. Suitable reagents include but are not limited to any ATP dependent luciferase such as but not limited to firefly luciferase, other modified luciferase based reagents, i.e. luciferase derivatives. According to the rapid method for determining the anti-cancer activity of a compound, a sample of living cells is distributed across a number of testing wells. Typically, 96-well plates are used; however, the number of wells is not critical to the current method. When using a 96-well plate the number of living cells will commonly be about 20,000. The sample wells contain a cell growth medium to promote cell health and growth and an additive to prevent bacterial contamination of the wells. One common example of the cell growth medium is DMEM with 10% FBS as described above. One example of the additive to prevent bacterial contamination is a solution of penicillin G and streptomycin referred to commonly as Pen-Strep. The Pen-Strep solution typically contains 5000 units of penicillin G and 5000 micrograms of streptomycin. Thus, the rapid determination of anti-cancer compounds can be carried out using the following method. • The desired number of cells are distributed in a 96-well plate containing 100 μL DMEM plus 10% FBS with optional Pen-Strep. • After 24 hours, cells are treated with the compound of interest or a 5% solution of dimethyl sulfoxide (DMSO) in water as a control. • The time period for exposure to the compound of interest and the DMSO control will vary depending on the luminescing detection reagent. […]

H293 (kidney cancer) = details: two hour incubation; for activity at 100 µM: 2 h, compound alone, control DMSO, read-out: POC (percent of control) H293
Source text: as §1, §2, §3

HDF (normal cells) = details: two hour incubation; for activity at 100 µM: 2 h, compound alone, control DMSO, read-out: POC (percent of control) HDF
Source text: as §1, §2, §3

HeLa (cervical cancer) = details: two hour incubation; for activity at 100 µM: Homo sapiens, HeLa, 2 h, compound alone, control DMSO, read-out: POC (percent of control) HeLa
Source text: as §1, §2, §3

[2] = test system: MCF10A (non-cancerous breast); details: two hour incubation; for activity at 100 µM: Homo sapiens, MCF-10A, 2 h, compound alone, control DMSO, read-out: POC (percent of control) MCF10A
Source text: as §1, §2, §3

MCF7 (breast cancer) = details: two hour incubation; for activity at 100 µM: Homo sapiens, MCF7, 2 h, compound alone, control DMSO, read-out: POC (percent of control) MCF7
Source text: as §1, §2, §3

MDA-MB (breast cancer) = details: two hour incubation; for activity at 100 µM: 2 h, compound alone, control DMSO, read-out: POC (percent of control) MDA-MB
Source text: as §1, §2, §3

NCI-H196 (lung cancer) = details: two hour incubation; for activity at 100 µM: NCI-H196, 2 h, compound alone, control DMSO, read-out: POC (percent of control) NCI-H196
Source text: as §1, §2, §3

PC3 (prostate cancer) = details: two hour incubation; for activity at 100 µM: 2 h, compound alone, control DMSO, read-out: POC (percent of control) PC3
Source text: as §1, §2, §3

SkBr3 (breast cancer) = details: two hour incubation; for activity at 100 µM: Homo sapiens, SK-BR-3, 2 h, compound alone, control DMSO, read-out: POC (percent of control) SkBr3
Source text: as §1, §2, §3

T47D (breast cancer) = details: two hour incubation; for activity at 100 µM: Homo sapiens, T47D, 2 h, compound alone, control DMSO, read-out: POC (percent of control) T47D
Source text: as §1, §2, §3

[3] = compound 100 uM + 2DG (about 10-20 mM)
[4] = compound 100 uM + rotenone (approximately 1.25 μM)

| SMILES | activity at 100 µM [1] | POC (percent of control) BxPC3 [1, 3] | POC (percent of control) BxPC3 [1, 4] | activity at 100 µM (H293 (kidney cancer)) | POC (percent of control) H293 (H293 (kidney cancer); [3]) | POC (percent of control) H293 (H293 (kidney cancer); [4]) | activity at 100 µM (HDF (normal cells)) | POC (percent of control) HDF (HDF (normal cells); [3]) | POC (percent of control) HDF (HDF (normal cells); [4]) | activity at 100 µM (HeLa (cervical cancer)) | POC (percent of control) HeLa (HeLa (cervical cancer); [3]) | POC (percent of control) HeLa (HeLa (cervical cancer); [4]) | activity at 100 µM [2] | POC (percent of control) MCF10A [2, 3] | POC (percent of control) MCF10A [2, 4] | activity at 100 µM (MCF7 (breast cancer)) | POC (percent of control) MCF7 (MCF7 (breast cancer); [3]) | POC (percent of control) MCF7 (MCF7 (breast cancer); [4]) | activity at 100 µM (MDA-MB (breast cancer)) | POC (percent of control) MDA-MB (MDA-MB (breast cancer); [3]) | also measured |
| --- | --- | --- | --- | --- | --- | --- | --- | --- | --- | --- | --- | --- | --- | --- | --- | --- | --- | --- | --- | --- | --- |
| Cc1ccc(S(=O)(=O)NCc2nn(C)c3ccccc23)cc1 [Compound 8, 4-methyl-N-[(1-methyl-1H-indazol-3-yl)methyl]benzenesulfonamide] | 106% | 87.1% of control | 93.5% of control | 112% | 83.5% of control | 87.1% of control | 99% | 91.3% of control | 88.3% of control | 106% | 80.8% of control | 99.1% of control | 94.6% | 77.9% of control | 94.4% of control | 140% | 86.2% of control | 116.7% of control | 93.9% | 91.7% of control | POC (percent of control) MDA-MB (MDA-MB (breast cancer); [4]): 86.2% of control; activity at 100 µM (NCI-H196 (lung cancer)): 91.1%; POC (percent of control) NCI-H196 (NCI-H196 (lung cancer); [3]): 99.2% of control; POC (percent of control) NCI-H196 (NCI-H196 (lung cancer); [4]): 95.1% of control; activity at 100 µM (PC3 (prostate cancer)): 109%; POC (percent of control) PC3 (PC3 (prostate cancer); [3]): 87.9% of control; POC (percent of control) PC3 (PC3 (prostate cancer); [4]): 108.3% of control; activity at 100 µM (SkBr3 (breast cancer)): 88.8%; POC (percent of control) SkBr3 (SkBr3 (breast cancer); [3]): 97.1% of control; POC (percent of control) SkBr3 (SkBr3 (breast cancer); [4]): 103.7% of control; activity at 100 µM (T47D (breast cancer)): 64.1%; POC (percent of control) T47D (T47D (breast cancer); [3]): 94.6% of control; POC (percent of control) T47D (T47D (breast cancer); [4]): 101.2% of control |
| Cc1ccc(S(=O)(=O)NCc2ccc3c(cnn3C)c2)cc1 [Compound 9, 4-methyl-N-[(1-methyl-1H-indazol-5-yl)methyl]benzenesulfonamide] | 114% | 57.6% of control | 118.5% of control | 83.3% | 76.6% of control | 88.5% of control | 86.4% | 88.5% of control | 107.6% of control | 97.3% | 80.5% of control | 89.8% of control | 89.6% | 88.3% of control | 123.7% of control | 117% | 75.8% of control | 95.1% of control | 95.6% | 91.7% of control | POC (percent of control) MDA-MB (MDA-MB (breast cancer); [4]): 114% of control; activity at 100 µM (NCI-H196 (lung cancer)): 93.1%; POC (percent of control) NCI-H196 (NCI-H196 (lung cancer); [3]): 86.1% of control; POC (percent of control) NCI-H196 (NCI-H196 (lung cancer); [4]): 117.7% of control; activity at 100 µM (PC3 (prostate cancer)): 90.4%; POC (percent of control) PC3 (PC3 (prostate cancer); [3]): 89.3% of control; POC (percent of control) PC3 (PC3 (prostate cancer); [4]): 101.7% of control; activity at 100 µM (SkBr3 (breast cancer)): 74.1%; POC (percent of control) SkBr3 (SkBr3 (breast cancer); [3]): 89.9% of control; POC (percent of control) SkBr3 (SkBr3 (breast cancer); [4]): 115.5% of control; activity at 100 µM (T47D (breast cancer)): 50.3%; POC (percent of control) T47D (T47D (breast cancer); [3]): 58.9% of control; POC (percent of control) T47D (T47D (breast cancer); [4]): 103.5% of control |
| Cn1ncc2cc(CNS(=O)(=O)c3ccc(Cl)cc3)ccc21 [Compound 10, 4-chloro-N-[(1-methyl-1H-indazol-5-yl)methyl]benzenesulfonamide] | 66.3% | 62.9% of control | 54.4% of control | 106% | 84% of control | 70.8% of control | 88.6% | 92.7% of control | 82.2% of control | 106% | 91.3% of control | 85.5% of control | 92% | 100.4% of control | 83.5% of control | 115% | 121.2% of control | 89.4% of control | 94.1% | 86.7% of control | POC (percent of control) MDA-MB (MDA-MB (breast cancer); [4]): 87.4% of control; activity at 100 µM (NCI-H196 (lung cancer)): 106%; POC (percent of control) NCI-H196 (NCI-H196 (lung cancer); [3]): 90.8% of control; POC (percent of control) NCI-H196 (NCI-H196 (lung cancer); [4]): 103.7% of control; activity at 100 µM (PC3 (prostate cancer)): 115%; POC (percent of control) PC3 (PC3 (prostate cancer); [3]): 97.8% of control; POC (percent of control) PC3 (PC3 (prostate cancer); [4]): 98.7% of control; activity at 100 µM (SkBr3 (breast cancer)): 90.8%; POC (percent of control) SkBr3 (SkBr3 (breast cancer); [3]): 98% of control; POC (percent of control) SkBr3 (SkBr3 (breast cancer); [4]): 107.3% of control; activity at 100 µM (T47D (breast cancer)): 63.5%; POC (percent of control) T47D (T47D (breast cancer); [3]): 76.6% of control; POC (percent of control) T47D (T47D (breast cancer); [4]): 91.4% of control |
